# Experimental data as given in patent publication US20240209028A1, “CNP COMPOUNDS” (priority 2022, published 2024).
# Starred links: 1 amine or outer side, 2 acyl side, 3 side chain; linkers in the order of their positions; H or OH if unused. Positions of bridges follow the written chain, without caps; N, C: chain ends. Residues, ends and D or L forms follow the SMILES beside them. *: point of attachment. C18 diacid = O=C(O)CCCCCCCCCCCCCCCCC(=O)*; γGlu = O=C(O)[C@H](CCC(=O)[*:2])N[*:1]; AEEA = NCCOCCOCC(=O)O
# Experiment: Accelerated chemical stability (RP-UPLC recovery and LCMS degradation pattern, 37° C.)
# Type: physicochemical
# Design: Isomers TZ / Isomers 2 W / Loss of 18 amu TZ / Loss of 18 amu 2 W / Fragments TZ / Fragments 2 W / Fragments 1 W / Fragments 3 W / Fragments 4 W / Fragments 5 W / Fragments 6 W / Others 1 W / Others 3 W / Others 4 W / Others 5 W / Others 6 W / Isomers 1 W / Isomers 3 W / Isomers 4 W / Isomers 5 W / Isomers 6 W / Loss of 18 amu 1 W / Loss of 18 amu 3 W / Loss of 18 amu 4 W / Loss of 18 amu 5 W / Loss of 18 amu 6 W: unit not given here
# Conditions: LCMS; for Fragments 2 W / Isomers 2 W / Loss of 18 amu 2 W / Others 2 W: 2 weeks at 37° C.; for Fragments TZ / Isomers TZ / Loss of 18 amu TZ / Others TZ: time zero
# Experimental: In order to determine the chemical stability of CNP compounds in formulation, samples of CNP compounds in buffer were exposed to accelerated chemical degradation by heating. The stability of a given peptide was assessed by measuring recovery of intact peptide by quantification by RP-UPLC. To assess the chemical degradation pattern samples were also analysed by LC-MS.
# Sample preparation: Samples for the 2 week study were prepared according to the principles described in Example 5.
# Samples for the 6 week study were prepared by dissolving lyophilized peptide in buffer (8 mM phosphate, 250 mM glycerol, pH 7.4) to a nominal peptide concentration of 5000 nmol/ml followed by pH adjustment with 0.1 N HCl to pH 6.5.
# Incubation: For the 2 week study a time-zero (TZ) sample was pulled and stored at −18° C. and the remaining volume was incubated at 37° C. Samples were pulled and stored at −18° C. after 2 weeks of incubation. Frozen samples were thawed, diluted to about 200 nmol/mL and the extent of chemical degradation was determined using LCMS as described.
# For the 6 week study a time-zero (TZ) sample was pulled and stored at −18° C. and the remaining volume was incubated at 37° C. Samples were pulled on a weekly basis and stored at −18° C. until the last sampling time point at 6 weeks. Frozen samples were thawed, diluted to about 200 nmol/mL and the extent of chemical degradation was determined using RP-UPLC and LCMS as described.
# Analysis of peptide recovery by RP-UPLC: The RP-UPLC method was performed on a Waters ACQUITY H-CLASS UPLC system fitted with a PDA detector. Separation was carried out on an ACQUITY UPLC BEH C8 Column (130 Å, 1.7 μm, 2.1 mm×150 mm) operating at a column temperature of 50° C. with eluent A (19.59 mM NH4H2PO4 41.71 mM (NH4)2HPO4, pH 6.5 and MeCN 9:1 v:v) and eluent B (80% MeCN in water). UV-detection was carried out at 214 nm. The analysis was performed by injection of 3 μL of sample onto the column which was eluted with a 1-step linear gradient of eluents A and B from 27 to 30% B over 20 minutes followed by a wash at 95% B over 2 minutes followed by a re-equilibration phase for 7 minutes at a constant flow rate of 0.3 mL/min. This yielded an analysis time of 30 minutes per sample. The area of the peak corresponding to intact CNP compound was given on a percentage scale relative to the total peptide peak area.
# Analysis of chemical degradation patterns by LCMS: Samples were analysed on a […] UPLC from Thermo Scientific, using a Waters Acquity C18 reversed-phase column, 300 Å, […] particles 1 mm×150 mm. The compounds were separated by a linear gradient of solvent B from 5% to 55% over 48 minutes, using solvent A: water, 0.1% formic acid with 0.02% TFA and solvent B: acetonitrile, 0.1% formic acid with 0.02% TFA. Mass spectra were acquired by a Q Exactive Plus hybrid Quadrupole-Orbitrap mass spectrometer, BioPharma option (Thermo Scientific) interfaced with H-ESI II ion source. Data acquisitions were performed with a m/z 500 to 2000 scan range and a resolution of 30000.
# The data list was aggregated into a summed table of the compounds. The table headers were defined as follows: […]
# Results: The results from LCMS analysis of a 2 week accelerated degradation study on several CNP compounds of the present invention are summarised in Table 12. The results from RP-UPLC and LCMS analysis of a 6 week accelerated degradation study on CNP compound 9482 (Chem. 137) is summarised in Table 13 and Table 14 respectively.
# [1] = 5 mM sodium acetate, 250 mM glycerol, pH 4
# [2] = 6 week study, 3 weeks at 37° C.
# [3] = 6 week study, 4 weeks at 37° C.
# [4] = 6 week study, 5 weeks at 37° C.
# [5] = 6 week study, 6 weeks at 37° C.
# [6] = 8 mM sodium phosphate, 250 mM glycerol, pH 6.5
structure (smiles),measurement,setting,value
CC[C@H](C)[C@@H]1NC(=O)[C@H](CCCNC(=N)N)NC(=O)[C@H](CC(=O)O)NC(=O)[C@H](CC(C)C)NC(=O)[C@@H]2CCCN2C(=O)[C@H](CC(C)C)NC(=O)CNC(=O)[C@H](Cc2ccccc2)NC(=O)[C@@H](NC(=O)CNC(=O)[C@H](CCC(N)=O)NC(=O)[C@H](CO)NC(=O)CNC(=O)CNC(=O)[C@H](CCCCN)NC(=O)[C@H](CCCCN)NC(=O)[C@H](CCC(N)=O)NC(=O)[C@H](C)NC(=O)CNC(=O)[C@H](CCCCN)NC(=O)[C@H](Cc2ccc(O)cc2)NC(=O)COCCOCCNC(=O)COCCOCCNC(=O)COCCOCCNC(=O)COCCOCCNC(=O)CC[C@H](NC(=O)CC[C@H](NC(=O)CCCCCCCCCCCCCCCCC(=O)O)C(=O)O)C(=O)O)CSSC[C@@H](C(=O)O)NC(=O)CNC(=O)[C@H](CC(C)C)NC(=O)CNC(=O)[C@H](CO)NC(=O)[C@H](CC(C)C)NC(=O)[C@H](CO)NC(=O)CNC1=O [Compound 9435] ({C18 diacid-γGlu-γGlu-AEEA-AEEA-AEEA-AEEA}-YKGAQKKGGSQGCFGLPLDRIGSLSGLGC-OH; disulfide 13-29),Fragments 2 W,[1],0
same,Isomers 2 W,[1],0.6
same,Loss of 18 amu 2 W,[1],4.1
same,Others 2 W,[1],0%
same,Fragments TZ,[1],0
same,Isomers TZ,[1],0
same,Loss of 18 amu TZ,[1],0
same,Others TZ,[1],0%
CC[C@H](C)[C@@H]1NC(=O)[C@H](CCCNC(=N)N)NC(=O)[C@H](CC(=O)O)NC(=O)[C@H](CC(C)C)NC(=O)[C@@H]2CCCN2C(=O)[C@H](CC(C)C)NC(=O)CNC(=O)[C@H](Cc2ccccc2)NC(=O)[C@@H](NC(=O)CNC(=O)[C@H](CO)NC(=O)[C@H](CO)NC(=O)[C@H](CC(C)C)NC(=O)CNC(=O)[C@H](CCCCN)NC(=O)[C@H](CCCCN)NC(=O)[C@H](CCC(N)=O)NC(=O)[C@H](C)NC(=O)CNC(=O)[C@H](CCCCN)NC(=O)[C@H](Cc2ccc(O)cc2)NC(=O)[C@H](CCCCN)NC(=O)[C@H](CCCNC(=N)N)NC(=O)[C@H](C)NC(=O)[C@H](CCC(N)=O)NC(=O)[C@@H]2CCCN2C(=O)[C@H](Cc2c[nH]cn2)NC(=O)[C@H](CCC(=O)O)NC(=O)[C@H](CCC(N)=O)NC(=O)CC[C@H](NC(=O)CC[C@H](NC(=O)CC[C@H](NC(=O)CC[C@H](NC(=O)CC[C@H](NC(=O)CCCCCCCCCCCCCCCCC(=O)O)C(=O)O)C(=O)O)C(=O)O)C(=O)O)C(=O)O)CSSC[C@@H](C(=O)O)NC(=O)CNC(=O)[C@H](CC(C)C)NC(=O)CNC(=O)[C@H](CO)NC(=O)[C@H](CC(C)C)NC(=O)[C@H](CO)NC(=O)CNC1=O [compound 9482] ({C18 diacid-γGlu-γGlu-γGlu-γGlu-γGlu}-QEHPQARKYKGAQKKGLSSGCFGLPLDRIGSLSGLGC-OH; disulfide 21-37),Fragments 1 W,"6 week study, 1 week at 37° C.",0.20
same,Isomers 1 W,"6 week study, 1 week at 37° C.",0.00
same,Loss of 18 amu 1 W,"6 week study, 1 week at 37° C.",0.00
same,Others 1 W,"6 week study, 1 week at 37° C.",0.30
same,Fragments 2 W,6 week study,0.30
same,Isomers 2 W,6 week study,0.60
same,Loss of 18 amu 2 W,6 week study,0.10
same,Others 2 W,6 week study,0.3%
same,Fragments 3 W,[2],0.50
same,Isomers 3 W,[2],1.20
same,Loss of 18 amu 3 W,[2],0.10
same,Others 3 W,[2],0.30
same,Fragments 4 W,[3],0.90
same,Isomers 4 W,[3],1.70
same,Loss of 18 amu 4 W,[3],0.20
same,Others 4 W,[3],0.50
same,Fragments 5 W,[4],0.80
same,Isomers 5 W,[4],2.40
same,Loss of 18 amu 5 W,[4],0.20
same,Others 5 W,[4],0.40
same,Fragments 6 W,[5],1.20
same,Isomers 6 W,[5],3.90
same,Loss of 18 amu 6 W,[5],0.30
same,Others 6 W,[5],0.50
same,Fragments TZ,6 week study,0.00
same,Isomers TZ,6 week study,0.00
same,Loss of 18 amu TZ,6 week study,0.00
same,Others TZ,6 week study,0.2%
CC[C@H](C)[C@@H]1NC(=O)[C@H](CCCNC(=N)N)NC(=O)[C@H](CC(=O)O)NC(=O)[C@H](CC(C)C)NC(=O)[C@@H]2CCCN2C(=O)[C@H](CC(C)C)NC(=O)CNC(=O)[C@H](Cc2ccccc2)NC(=O)[C@@H](NC(=O)CNC(=O)[C@H](CCC(N)=O)NC(=O)[C@H](CO)NC(=O)[C@H](CC(C)C)NC(=O)CNC(=O)[C@H](CCCCN)NC(=O)[C@H](CCCCN)NC(=O)[C@H](CCC(N)=O)NC(=O)[C@H](C)NC(=O)CNC(=O)[C@H](CCCCN)NC(=O)[C@H](Cc2ccc(O)cc2)NC(=O)COCCOCCNC(=O)COCCOCCNC(=O)COCCOCCNC(=O)COCCOCCNC(=O)CC[C@H](NC(=O)CC[C@H](NC(=O)CC[C@H](NC(=O)CCCCCCCCCCCCCCCCC(=O)O)C(=O)O)C(=O)O)C(=O)O)CSSC[C@@H](C(=O)O)NC(=O)CNC(=O)[C@H](CC(C)C)NC(=O)CNC(=O)[C@H](CO)NC(=O)[C@H](CC(C)C)NC(=O)[C@H](CO)NC(=O)CNC1=O [Compound 9480] ({C18 diacid-γGlu-γGlu-γGlu-AEEA-AEEA-AEEA-AEEA}-YKGAQKKGLSQGCFGLPLDRIGSLSGLGC-OH; disulfide 13-29),Fragments 2 W,[6],0
same,Isomers 2 W,[6],0
same,Loss of 18 amu 2 W,[6],0
same,Others 2 W,[6],0.6%
same,Fragments TZ,[6],0
same,Isomers TZ,[6],0
same,Loss of 18 amu TZ,[6],0
same,Others TZ,[6],0%
CC[C@H](C)[C@@H]1NC(=O)[C@H](CCCNC(=N)N)NC(=O)[C@H](CC(=O)O)NC(=O)[C@H](CC(C)C)NC(=O)[C@@H]2CCCN2C(=O)[C@H](CC(C)C)NC(=O)CNC(=O)[C@H](Cc2ccccc2)NC(=O)[C@@H](NC(=O)CNC(=O)[C@H](CO)NC(=O)[C@H](CO)NC(=O)[C@H](CC(C)C)NC(=O)CNC(=O)[C@H](CCCCN)NC(=O)[C@H](CCCCN)NC(=O)[C@H](CCC(N)=O)NC(=O)[C@H](C)NC(=O)CNC(=O)[C@H](CCCCN)NC(=O)[C@H](Cc2ccc(O)cc2)NC(=O)[C@H](CCCCN)NC(=O)[C@H](CCCNC(=N)N)NC(=O)[C@H](C)NC(=O)[C@H](CCC(N)=O)NC(=O)[C@@H]2CCCN2C(=O)[C@H](Cc2c[nH]cn2)NC(=O)[C@H](CCC(=O)O)NC(=O)[C@H](CCC(N)=O)NC(=O)CC[C@H](NC(=O)CC[C@H](NC(=O)CC[C@H](NC(=O)CC[C@H](NC(=O)CC[C@H](NC(=O)CCCCCCCCCCCCCCCCC(=O)O)C(=O)O)C(=O)O)C(=O)O)C(=O)O)C(=O)O)CSSC[C@@H](C(=O)O)NC(=O)CNC(=O)[C@H](CC(C)C)NC(=O)CNC(=O)[C@H](CO)NC(=O)[C@H](CC(C)C)NC(=O)[C@H](CO)NC(=O)CNC1=O [Compound 9482] ({C18 diacid-γGlu-γGlu-γGlu-γGlu-γGlu}-QEHPQARKYKGAQKKGLSSGCFGLPLDRIGSLSGLGC-OH; disulfide 21-37),Fragments 2 W,[6],0
same,Isomers 2 W,[6],0
same,Loss of 18 amu 2 W,[6],0
same,Others 2 W,[6],0.3%
same,Fragments TZ,[6],0
same,Isomers TZ,[6],0
same,Loss of 18 amu TZ,[6],0
same,Others TZ,[6],0%
